The subject of data set [1] is patients with AA amyloidosis. To be noted: previously tested clinically in patients with AA amyloidosis; cited from earlier work.
Data set [2] concerns Zucker Diabetic Fatty rat (ZDF). The data set is described as follows: Histology of the pancreas in ZDF rats (islets of Langerhans per field). Type of data set: in vivo. To be noted: week 12, significant difference, FIG. 11. The source says:
FIG. 11 is a box graph showing distribution of number of islets of Langerhans per field counted during histology of the pancreas from control and treated Zucker diabetic obese male rats at week 12, according to Example 11(b). Box plot lower limit represents the 25th percentile, whereas higher limit represents 75th percentile. Whiskers above and below indicate 90th and 10th percentiles, and median and mean values are represented by solid and dashed lines respectively.
(§1) Thirty-two, 6 week-old male ZDF rats (Charles River, St. Constant, Canada) were randomized in 2 groups, Treated (PDS; in 1% sucrose drinking solution) and Control (1% sucrose drinking solution), and studied for a period of 12 weeks. […] All rats were fed a high fat/high sucrose diabetogenic diet (Harlan™ TD95217). Body weight, food and drinking solution consumption were measured on a daily basis. Twelve rats from each group were individually housed in metabolic cages for a period of 24 hours once a week. […] At the end of each metabolic cage session, urine output was measured, and blood and urine samples were collected in order to quantify serum and/or urine levels of PDS, creatinine, protein, uric acid, triglycerides, glucose, and electrolytes. […]

The test system is the same in data set [3]. The data set is described as follows: Effect on pancreatic function in ZDF rats (satient insulin, glycemia, diuresis). The format is in vivo. As for the experimental part: (§2) Thirty-two, 6 week-old male ZDF rats (Charles River, St. Constant, Canada) were randomized in 2 groups, Treated (PDS; in 1% sucrose drinking solution) and Control (1% sucrose drinking solution), and studied for a period of 12 weeks. […] All rats were fed a high fat/high sucrose diabetogenic diet (Harlan™ TD95217). Body weight, food and drinking solution consumption were measured on a daily basis. Twelve rats from each group were individually housed in metabolic cages for a period of 24 hours once a week. During week 2, 3, 4 and 5, rats placed in metabolic cages received drinking solution but were placed in fasting condition, whereas during weeks 1, […], 6 to 12, rats were given ad libitum access to food and drinking solution. At the end of each metabolic cage session, urine output was measured, and blood and urine samples were collected in order to quantify serum and/or urine levels of PDS, creatinine, protein, uric acid, triglycerides, glucose, and electrolytes. These variables were used to calculate creatinine clearance (Ccr) and proteinuria, and to evaluate general metabolic and renal health status. At the end of the study, the animals were sacrificed and selected organs were kept for further analysis (e.g. weighing, histology).
As is known, diabetes may be due to a lack of insulin secretion (type I diabetes), or to a resistance of peripheral tissues to insulin action (more insulin is needed to decrease blood glucose to the same level as controls in the same amount of time; type II diabetes). The Zucker obese diabetic rat employed in this study is a model of insulin resistance. Hyperglycemia is almost always observed in this model, despite the initially very high circulating insulin levels that fall down with the progression of the disease due to pancreatic beta cell exhaustion. A beneficial treatment is expected to increase insulin secretion, decrease glucose levels by other means or increase glucose utilization by peripheral tissues.
Results for each time point are represented as median and mean ± SEM. Trend statistics are calculated by two-way ANOVA with or without repeated measures, with p<0.05 considered statistically significant.

For data set [4] the test system is unchanged. As to the kind of experiment: In vivo preventive study of renal function and metabolic status in ZDF rats (serum/urine chemistry, body and organ weights).
Description: The compound 1,3 Propanedisulfonic Acid Disodium Salt (PDS) was selected for a preventive study of renal function in the Zucker rat (ZDF) model as well as its effect on metabolic status and diabetes.
A leading study model for DN is the inbred Zucker Diabetic Fatty rat (ZDF). Given a diabetogenic diet, the ZDF rat will closely mimic human adult onset diabetes (Type 2) and related complications including glomerulosclerosis and renal damage earlier than when fed a normal diet (i.e. 14-18 weeks of age). In addition, obesity, mild hypertension, hypertriglyceridemia, hypercholesterolemia, fasting hyperglycemia, impaired glucose tolerance and hyperinsulinemia, are all major phenotypes featured in the ZDF rat.
as §2
This pre-clinical investigation evaluates the role and efficacy of compound 1,3-Propanedisulfonic Acid Disodium Salt (PDS) (Eprodisate Disodium) as a preventive treatment for DN and related pathophysiology in the ZDF rat model. The primary measured outcome is the attenuation/reversal of creatinine clearance deterioration and of proteinuria. The secondary measured outcome is the impact on the metabolic status in this model.
Results for each time point are represented as median or mean ± SEM. Trend statistics are calculated by two-way ANOVA with or without repeated measures, with p<0.05 considered statistically significant.

Data set [5] concerns SHR rats. As to the kind of experiment: In vivo preventive study of pancreatic function in SHR rats (streptozotocine, OGTT). Further details: species or system rat. As to conditions: low dose streptozotocine after initiation of treatment, PDS vs vehicle. On the procedure:
SHR rats are non-diabetic rats but having insulin resistance. Rats are divided in two groups which are administered PDS or vehicle respectively. After initiation of treatment, all rats are administered streptozotocine at low dose with the aim to chemically destroy a portion of Langerhans islets. Both treated and control rats are challenged by an Oral Glucose Tolerance Test (OGTT) and glucose levels are measured.

Data set [6] concerns Peroxisome proliferator-activated receptor gamma (PPARG). The data set is described as follows: Kidney gene expression, Gene Chip Rat Exon 1.0 ST Array. The format is in vivo. To be noted: pooled whole kidney RNA, treated vs controls. As for the experimental part:
The effect of the PDS treatment on kidney gene expression was also measured. Briefly, whole kidney RNA was isolated and pooled from 2-4 individual rats from each group (controls and treated group). The polled RNA was then processed using a Gene Chip Rat Exon 1.0 ST Array™ (Affimetrix) according to the manufacturer's standard procedure and analyzed for differential expression between the two groups on gene and exon levels. […] PPARG is a well known transcriptional regulator that regulates lipid, glucose and amino acid metabolism, and this receptor is the main target of the thiazolidinediones used in diabetes mellitus and other diseases that feature insulin resistance.

Data set [7] concerns Zucker Diabetic Fatty rat (ZDF). As to the kind of experiment: Kidney histology (glomerular global score) in ZDF rats. The format is in vivo. As to conditions: after 12 weeks.
Description: FIG. 7 is a bar graph showing glomerular global score for control and treated satient Zucker diabetic obese male rats after 12 weeks, according to Example 11(a). Categories: (−) no global score; (±) mild global score; (+) mild to moderate global score; (++) moderate global score.
as §1
Histology was performed on both controls and PDS-treated animals. […] The global score was calculated by summing up the number of observations for each histological parameter (mesangial matrix expansion, glomerular cell proliferation, basement membrane thickening, and glomerular enlargement). […]

[8] abbreviates: end of 12-week study, not shown.

The values that follow come from US20080262088A1, “METHODS, COMPOUNDS, AND COMPOSITIONS FOR TREATING METABOLIC DISORDERS AND DIABETES” (priority 2006, published 2008).

Molecules are shown by their SMILES.

As to `O=S(=O)(O)CCCS(=O)(=O)O` [1,3-propanedisulfonic acid], the safety in humans result in data set [1] is “can be safely used in humans”.

For the molecule `O=S(=O)([O-])CCCS(=O)(=O)[O-].[Na+].[Na+]` [PDS, 1,3 Propanedisulfonic Acid Disodium Salt], the “number of islets of Langerhans per field, treated vs controls” value in data set [2] is given as “higher number”. Also, the “glycemia, serum glucose by hexokinase (HK) II method, PDS-treated vs control” value in data set [3] (by week 10, p<0.001, FIG. 9A) is “significantly lower”. In addition, the “glycemia, capillary blood glucose by glucose meter kit, PDS-treated vs control” value in data set [3] (by week 10, p=0.002, FIG. 9B) is listed as “significantly lower”. Besides, the “satient serum insulin (RIA), PDS-treated vs control” value in data set [3] (end of the experiment (12 weeks), fed animals, FIG. 8) is on record as “more than twice as high”. Further, the “diuresis (urine production), PDS-treated vs control” value in data set [3] (from week 9, FIG. 10) is on record as “lower”. The “creatinine clearance (body weight corrected), treated vs control” value in data set [4] (12 weeks of treatment, FIG. 2B, slight tendency to be higher weeks 6-8) is listed as “no significant difference”. For the same molecule, the “clearance of uric acid, treated vs control” value in data set [4] (FIG. 4B, body weight corrected) is reported as “better in treated animals”. Further, the “proteinuria (urine protein content), treated vs control” value in data set [4] (after 8 weeks measurable effect, difference significant at weeks ten and twelve, FIG. 3) is “lesser proteinuria”. The “kidney size, treated vs controls” value in data set [4] (end of 12-week study) is “tended to be smaller”. Further, in data set [4] (setting [8]), the “heart weight/BW ratio, treated vs control” value is listed as “no significant difference”; the “kidney weight/BW ratio, treated vs control” value was “no significant difference”; the “pancreas weight/BW ratio, treated vs control” value was “no significant difference”. The “serum triglycerides, PDS-treated vs controls” value in data set [4] (from onset of treatment throughout the study, p=0.002, FIG. 6A) is reported as “consistently lower”. The “adverse effect at the beginning of the study (little decline in body weight)” value in data set [4] (higher concentration of PDS, week 1 (avg 4270 mg/kg/day)) is given as “diarrhea”. In addition, the “bodyweight of the treated vs. the control animals” value in data set [4] (male ZDF rats, PDS in 1% sucrose drinking solution, 12 weeks, data not shown) is on record as “not significant difference”. In addition, the “serum creatinine, treated vs control” value in data set [4] (satient ZDF rats, 12 weeks, FIG. 2A, stable in both groups) was “tendency for lower values between treatment weeks 6 and 9”. The “hyperkalemia (serum potassium), control vs treated” value in data set [4] (starting at week 7, weeks 8 to 12, p<0.001, FIG. 5) is recorded as “significantly more severe in the control group”. The “serum cholesterol, PDS-treated vs control” value in data set [4] (treatment week 10, FIG. 6B) is reported as “significantly lower”. This molecule came in with a serum cholesterol in data set [4] (week 12, control 7.1 mmol/L, p<0.001) of 4.5 mmol/L. Besides, the “uric acid levels in serum, control group relative to PDS-treated animals” value in data set [4] (weeks 6 to 12, FIG. 4A) is listed as “consistently higher than values from the PDS-treated animals”. In addition, in data set [5], the “glucose levels after Oral Glucose Tolerance Test (OGTT)” value is “lower glucose levels than control”. Moreover, in data set [6], the “PPARG gene expression in kidney, increase in treatment group” value was determined as 1.85 fold. Also, in data set [6] (not shown), the “number of genes down regulated in the treatment group” value is listed as 43 genes and the “number of genes up regulated in the treatment group” value stood at 75 genes. Also, in data set [7] (p=0.001, FIG. 7, sum of mesangial matrix expansion, glomerular cell proliferation, basement membrane thickening, glomerular enlargement), the “glomerular global score (histology)” value is “lowest scores”. Moreover, the “kidney pathology (histology), treated vs control” value in data set [7] (not shown separately) was “less pathology”.
